From the NIST ThermoML archive (doi:10.1021/je900091b)

Test: xn = mol fraction of the nth substance listed
Conditions: Liquid

C=C(C)C(=O)OC [methyl methacrylate] + CCCCn1cc[n+](C)c1.F[P-](F)(F)(F)(F)F
Conditions	mass density [kg/m3]	viscosity [mPa·s]
313.15 K, x1 = 0.5993	1183.05	7.55
313.15 K, x1 = 0.7009	1135.06	4.379
313.15 K, x1 = 0.8003	1078.32	2.175
313.15 K, x1 = 0.9007	1009.49	1.092
313.15 K, x1 = 1	920.185	0.4719
318.15 K, x1 = 0.0986	1331.15	62.99
318.15 K, x1 = 0.2094	1305.41	38.91
318.15 K, x1 = 0.3073	1279.94	25.49
318.15 K, x1 = 0.4053	1251.13	16.71
318.15 K, x1 = 0.4977	1218.64	10.9
318.15 K, x1 = 0.5993	1178.39	6.745
318.15 K, x1 = 0.7009	1130.19	3.99
318.15 K, x1 = 0.8003	1073.17	2.007
318.15 K, x1 = 0.9007	1004	1.026
318.15 K, x1 = 1	914.317	0.4497
323.15 K, x1 = 0.0986	1327	51.32
323.15 K, x1 = 0.2094	1301.17	32.45
323.15 K, x1 = 0.3073	1275.58	21.7
323.15 K, x1 = 0.4053	1246.74	14.51
323.15 K, x1 = 0.4977	1214.13	9.64
323.15 K, x1 = 0.5993	1173.73	6.066
323.15 K, x1 = 0.7009	1125.33	3.653
323.15 K, x1 = 0.8003	1068.01	1.868
323.15 K, x1 = 0.9007	998.489	0.9687
323.15 K, x1 = 1	908.405	0.4294
328.15 K, x1 = 0.0986	1322.85	42.36
328.15 K, x1 = 0.2094	1296.92	27.39
328.15 K, x1 = 0.3073	1271.14	18.69
328.15 K, x1 = 0.4053	1242.36	12.71
328.15 K, x1 = 0.4977	1209.65	8.585
328.15 K, x1 = 0.5993	1169.08	5.497
328.15 K, x1 = 0.7009	1120.46	3.362
328.15 K, x1 = 0.8003	1062.85	1.743
328.15 K, x1 = 0.9007	992.98	0.9201
328.15 K, x1 = 1	902.468	0.41
333.15 K, x1 = 0.0986	1318.71	35.43
333.15 K, x1 = 0.2094	1292.66	23.38
333.15 K, x1 = 0.3073	1267.36	16.24
333.15 K, x1 = 0.4053	1237.99	11.22
333.15 K, x1 = 0.4977	1205.17	7.691
333.15 K, x1 = 0.5993	1164.44	4.991
333.15 K, x1 = 0.7009	1115.59	3.111
333.15 K, x1 = 0.8003	1057.67	1.629
333.15 K, x1 = 0.9007	987.485	0.915
333.15 K, x1 = 1	896.479	0.3938
343.15 K, x1 = 0.0986	1310.46	25.61
343.15 K, x1 = 0.2094	1284.51	17.56
343.15 K, x1 = 0.3073	1259.32	12.57
343.15 K, x1 = 0.4053	1229.29	8.922
343.15 K, x1 = 0.4977	1196.23	6.278
343.15 K, x1 = 0.5993	1155.17	4.187
343.15 K, x1 = 0.7009	1105.84	2.708
343.15 K, x1 = 0.8003	1047.29	1.431
343.15 K, x1 = 0.9007	976.413	0.8545
343.15 K, x1 = 1	884.418	0.3636
353.15 K, x1 = 0.0986	1302.23	19.25
353.15 K, x1 = 0.2094	1275.98	13.65
353.15 K, x1 = 0.3073	1250.71	10.01
353.15 K, x1 = 0.4053	1220.62	7.259
353.15 K, x1 = 0.4977	1187.32	5.224
353.15 K, x1 = 0.5993	1145.91	3.579
353.15 K, x1 = 0.7009	1096.08	2.415
353.15 K, x1 = 0.8003	1036.87	1.272
353.15 K, x1 = 0.9007	965.13	0.781
353.15 K, x1 = 1	872.129	0.3398
